This passage reports perc_inhibition_mean and inhibition results from paper doi:10.1101/2024.08.19.608619, “Discovery of potent SARS-CoV-2 nsp3 macrodomain inhibitors uncovers lack of translation to cellular antiviral response” (bioRxiv, 2024).

Where two headings read alike, the source gives them in different places.

In assay [1] the target is T1, SARS-CoV-2 nsp3-mac1 (Severe acute respiratory syndrome coronavirus 2, UniProt P0DTD1). As to the kind of experiment: biochemical. It is filed as biochemical. As to conditions: SARS-CoV-2 nsp3 macrodomain TR-FRET single point. A general note: TR-FRET usually uses a lanthanide donor and a delayed reading to cut background.
Assay [2] has as its target T1, SARS-CoV-2 nsp3-mac1. As to the kind of experiment: biochemical. Also on record: SARS-CoV-2 nsp3 macrodomain TR-FRET single point, per cent inhibition, n=2.
Setting [3] is: read-out: perc_inhibition_mean, batch_name=ASAP-0000350-001.
The mark [4] stands for this setting: read-out: perc_inhibition_mean, batch_name=ASAP-0000351-001.
[5] abbreviates: read-out: perc_inhibition_mean, batch_name=ASAP-0000352-001.
The mark [6] stands for this setting: read-out: perc_inhibition_mean, batch_name=ASAP-0000353-001.
The mark [7] stands for this setting: read-out: perc_inhibition_mean, batch_name=ASAP-0000354-001.
The mark [8] stands for this setting: read-out: perc_inhibition_mean, batch_name=ASAP-0000355-001.
Setting [9] is: read-out: perc_inhibition_mean, batch_name=ASAP-0000356-001.
Where [10] appears, read: read-out: perc_inhibition_mean, batch_name=ASAP-0000357-001.
The mark [11] stands for this setting: read-out: perc_inhibition_mean, batch_name=ASAP-0000358-001.
Setting [12] is: read-out: perc_inhibition_mean, batch_name=ASAP-0000359-001.
Setting [13] is: read-out: perc_inhibition_mean, batch_name=ASAP-0000360-001.
[14] abbreviates: read-out: perc_inhibition_mean, batch_name=ASAP-0000361-001.
Setting [15] is: read-out: perc_inhibition_mean, batch_name=ASAP-0000363-001.
The mark [16] stands for this setting: read-out: perc_inhibition_mean, batch_name=ASAP-0000364-001.

Take `O=C(N[C@H]1CCC[C@H]1C(=O)O)c1cnn2ccc(C3CCN(C(=O)c4ccccc4)CC3)cc12` [ASAP-0000350]: the perc_inhibition_mean amounted to 59.585% in assay [1] (concentration 49.75 uM, n=2) and 73.53% in assay [1] (concentration 99.5 uM, n=2). Moreover, the inhibition at 49.75 µM in assay [2] (setting [3]) was determined as 59.6%. In assay [2] (setting [3]), the inhibition at 99.5 µM was 73.5%.

Regarding `Cc1cnc(C(=O)N(CCC(=O)N2CCNCC2)Cc2cccc(Cl)c2)nc1` [ASAP-0000351], the perc_inhibition_mean in assay [1] (concentration 49.75 uM, n=2) is reported as -1.487%. In assay [1] (concentration 99.5 uM, n=2), the perc_inhibition_mean was 6.47%. Besides, in assay [2] (setting [4]), the inhibition at 49.75 µM was -1.49% and the inhibition at 99.5 µM worked out at 6.47%.

For `O=C(NCCn1cncn1)c1cnn2ccc(C3CCN(C(=O)c4ccccc4)CC3)cc12` [ASAP-0000352], the perc_inhibition_mean in assay [1] (concentration 49.75 uM) is on record as -3.7%; in assay [1] (concentration 99.5 uM, n=2) it was -2.566%. Further, the inhibition at 49.75 µM in assay [2] (setting [5]) is -3.7%. The inhibition at 99.5 µM in assay [2] (setting [5]) was -2.57%.

For `O=C(NC[C@@H]1CCCCN1)c1cnn2ccc(C3CCN(C(=O)c4ccccc4)CC3)cc12` [ASAP-0000353], in assay [1] (concentration 49.75 uM), the perc_inhibition_mean is -5.92%. Further, the perc_inhibition_mean in assay [1] (concentration 99.5 uM) was -2.573%. Moreover, in assay [2] (setting [6]), the inhibition at 49.75 µM is -5.92% and the inhibition at 99.5 µM is -2.57%.

For the molecule `Cc1ccc(NC(=O)c2cnn3ccc(C4CCN(C(=O)c5ccccc5)CC4)cc23)cc1C(=O)O` [ASAP-0000354], the figures for the perc_inhibition_mean in assay [1] (concentration 49.75 uM) and in assay [1] (concentration 99.5 uM) were -1.047% and -0.624%, respectively. Besides, in assay [2] (setting [7]), the inhibition at 49.75 µM was -1.05%. Moreover, the inhibition at 99.5 µM in assay [2] (setting [7]) is -0.624%.

As for `O=C(NCc1ncccn1)c1cnn2ccc(C3CCN(C(=O)c4ccccc4)CC3)cc12` [ASAP-0000355], the perc_inhibition_mean in assay [1] (concentration 49.75 uM) is reported as -0.074%. In assay [1] (concentration 99.5 uM), the perc_inhibition_mean is -6.657%. In assay [2] (setting [8]), the inhibition at 49.75 µM was -0.074% and the inhibition at 99.5 µM was -6.66%.

Turning to `NC1(C(=O)N(CCC(=O)N2CCNCC2)Cc2cccc(Cl)c2)CC(F)(F)C1` [ASAP-0000356], the perc_inhibition_mean in assay [1] (concentration 49.75 uM) is recorded as -3.48%. In assay [1] (concentration 99.5 uM), the perc_inhibition_mean is recorded as -1.174%. For the same molecule, in assay [2] (setting [9]), the inhibition at 49.75 µM was -3.48% and the inhibition at 99.5 µM is -1.17%.

`O=C1CCC[C@@H](C(=O)N(CCC(=O)N2CCNCC2)Cc2cccc(Cl)c2)N1` [ASAP-0000357]: in assay [1] (concentration 49.75 uM), the perc_inhibition_mean was found to be 2.418%. For the same molecule, the perc_inhibition_mean in assay [1] (concentration 99.5 uM) was -3.31%. In assay [2] (setting [10]), the inhibition at 49.75 µM was found to be 2.42% and the inhibition at 99.5 µM is -3.31%.

With `Cc1ccc(C(=O)N2CCC(c3ccn4ncc(C(=O)N5CCCCC5)c4c3)CC2)c(=O)[nH]1` [ASAP-0000358], the perc_inhibition_mean in assay [1] (concentration 49.75 uM) was determined as 3.307%. Moreover, the perc_inhibition_mean in assay [1] (concentration 99.5 uM) turned out to be 3.662%. In addition, in assay [2] (setting [11]), the inhibition at 49.75 µM came to 3.31% and the inhibition at 99.5 µM was determined as 3.66%.

As to `O=C(Cc1ccns1)Nc1ncnc2[nH]cnc12` [ASAP-0000359], the results for the perc_inhibition_mean in assay [1] (concentration 49.75 uM) and in assay [1] (concentration 99.5 uM) were -9.501% and -3.24%, respectively. In addition, the inhibition at 49.75 µM in assay [2] (setting [12]) was -9.5%. Moreover, the inhibition at 99.5 µM in assay [2] (setting [12]) was -3.24%.

Consider `O=C(O)c1ccsc1C(=O)N1CCC(c2ccn3ncc(C(=O)N4CCCCC4)c3c2)CC1` [ASAP-0000360], for which the perc_inhibition_mean in assay [1] (concentration 49.75 uM) is recorded as 45.022%. In assay [1] (concentration 99.5 uM), the perc_inhibition_mean came out at 61.208%. Besides, in assay [2] (setting [13]), the inhibition at 49.75 µM stood at 45% and the inhibition at 99.5 µM is 61.2%.

Consider `CCN(Cc1nnc(C)o1)C(=O)c1cnn2ccc(C3CCN(C(=O)c4ccccc4)CC3)cc12` [ASAP-0000361], for which the perc_inhibition_mean in assay [1] (concentration 49.75 uM) was found to be 10.027%. In addition, in assay [1] (concentration 99.5 uM), the perc_inhibition_mean is on record as -5.306%. Besides, in assay [2] (setting [14]), the inhibition at 49.75 µM is 10% and the inhibition at 99.5 µM is -5.31%.

As to `Oc1ccccc1CNc1ncnc2cccnc12` [ASAP-0000363], the perc_inhibition_mean in assay [1] (concentration 49.75 uM) is recorded as -1.837%. Also, in assay [1] (concentration 99.5 uM), the perc_inhibition_mean is given as -0.535%. Further, in assay [2] (setting [15]), the inhibition at 49.75 µM is -1.84% and the inhibition at 99.5 µM was -0.535%.

Take `O=C(c1ccnnc1O)N1CCC(c2ccn3ncc(C(=O)N4CCCCC4)c3c2)CC1` [ASAP-0000364]: the perc_inhibition_mean in assay [1] (concentration 49.75 uM) is -7.591%. The perc_inhibition_mean in assay [1] (concentration 99.5 uM) was 10.21%. Besides, in assay [2] (setting [16]), the inhibition at 49.75 µM was -7.59% and the inhibition at 99.5 µM is 10.2%.
